Source: US20180228861A1, “COMPOSITION FOR TREATING DIABETES AND DYSLIPIDEMIA OBTAINED FROM THE EXTRACT OF COSTUS PICTUS D.DON PLANT AND A METHOD OF PREPARING THE SAME” (ARJUNA NATURAL EXTRACTS, LTD., priority 2012, published 2018)

Legend:
Assay type in all cases: in vivo
[1] = test system: high fat diet-induced insulin resistance model with C57/BL 6J mice; test: Lipid profile in high fat diet-induced insulin resistance model; conditions: high fat diet induced diabetes mellitus, extracts 40 mg/kg orally for 6 weeks, metformin as standard drug
Method: The study was designed to evaluate the effect of different fractions of Costus pictus D. Don on high fat-induced resistance Type 2diabetic model (HFD). Six week-old C57B1/6J mice were allowed free access to food and water. They were housed under identical standard conditions. The animals were kept for acclimatization for a period of 7 days. After 7 days, the mice were randomly divided into six groups of six mice each. The normal control group was treated with normal regular diet and the rest of the animals were fed with high fat diet for 6 weeks. […] The experimental design was as follows:
(§1) Body weights were determined biweekly. At the end of experimental period, blood samples were collected to determine plasma glucose, insulin, leptin, glycosylated hemoglobin, triglycerides, total cholesterol, LDL, HDL and VLDL.

[2] = test system: high fat diet-induced insulin resistance model with C57/BL 6J mice; test: Body weight in high fat diet-induced insulin resistance model
Text: Evaluation of effect of different fractions of Costus pictus D. Don on high fat diet-induced insulin resistance model with C57/BL 6J mice.
(§2) The study was designed to evaluate the effect of different fractions of Costus pictus D. Don on high fat-induced resistance Type 2diabetic model (HFD). Six week-old C57B1/6J mice were allowed free access to food and water. They were housed under identical standard conditions. The animals were kept for acclimatization for a period of 7 days. After 7 days, the mice were randomly divided into six groups of six mice each. The normal control group was treated with normal regular diet and the rest of the animals were fed with high fat diet for 6 weeks. After 6 weeks, methanolic extract of fresh leaves of Costus pictus D. Don, and the extract had low oxalic acid and/or oxalates content, silica purified ethyl acetate extract of methanolic extract of fresh leaves of Costus pictus D. Don where the extract had low oxalic acid and/or oxalates content and ethyl acetate extract of 90% methanolic extract of fresh leaves of Costus pictus D. Don where the extract had low oxalic acid and/or oxalates content were administered at 40 mg/kg p.o. for 6 consecutive weeks. The experimental design was as follows:
Group 3—HFD for 6 weeks and Standard drug treated group for 6 weeks—metformin.
Group 4—HFD for 6 weeks and methanolic extract of fresh leaves of Costus pictus D. Don where the extract had low oxalic acid and/or oxalates content (Sample 2 prepared as per example 1) at 40 mg/kg orally for 6 weeks.
Group 5—HFD for 6 weeks and silica purified ethyl acetate extract of 90% methanolic extract of fresh leaves of Costus pictus D. Don where the extract had low oxalic acid and/or oxalates content (Sample 5 prepared as per example 4) at 40 mg/kg orally for 6 weeks.
Group 6—HFD for 6 weeks and ethyl acetate extract of 90% methanol extract of fresh leaves of Costus pictus D. Don where the extract had low oxalic acid and/or oxalates content (Sample 4 prepared as per example 3) at 40 mg/kg orally for 6 weeks.
as §1

[3] = test system: high fat diet-induced insulin resistance model with C57/BL 6J mice; test: Serum insulin and glycosylated hemoglobin in high fat diet-induced insulin resistance model; conditions: high fat diet induced diabetes mellitus, extracts 40 mg/kg orally for 6 weeks, metformin as standard drug
Method: as §2, §1

[4] = test system: high fat diet-induced insulin resistance model with C57/BL 6J mice; test: Blood glucose in high fat diet-induced insulin resistance model; conditions: HFD mice, end of experimental period; extracts 40 mg/kg orally for 6 weeks, metformin as standard drug
Method: as §2, §1

CN(C)C(=N)N=C(N)N [metformin]
HDL [1]: 99 mg/dL | LDL [1]: 17 mg/dL | VLDL [1]: 6 mg/dL | TC ([1]; total cholesterol): 122 mg/dL | TG ([1]; triglycerides): 30 mg/dL | Body weight, week 0 ([2]; C57/BL 6J mice on high fat diet, week 0, before treatment): 15 grams | Body weight, week 2 ([2]; C57/BL 6J mice on high fat diet, week 2, before treatment): 30 grams | Body weight, week 4 ([2]; C57/BL 6J mice on high fat diet, week 4, before treatment): 46 grams | Body weight, week 6 ([2]; C57/BL 6J mice on high fat diet, week 6, start of treatment): 61 grams | Body weight, week 8 ([2]; HFD mice, week 8, extracts 40 mg/kg orally from week 6, metformin as standard drug): 48 grams | Body weight, week 10 ([2]; HFD mice, week 10, extracts 40 mg/kg orally from week 6, metformin as standard drug): 35 grams | Body weight, week 12 ([2]; HFD mice, week 12, extracts 40 mg/kg orally from week 6, metformin as standard drug): 35 grams | Glycosylated Hb [3]: 0.5 % of total Hb | Insulin ([3]; serum): 1.7 ng/mL | Blood glucose [4]: 100 mg/dL
